Values quoted from earlier work as cited in US9212386B2, “Enzymatic cleavage based lateral flow assays” (Rapid Pathogen Screening, Inc., priority 2011, dated 2015).
*: point of attachment. FITC = O=C1OC2(c3ccc(O)cc3Oc3cc(O)ccc32)c2ccc(NC(=S)*)cc21; Ahx = NCCCCCC(=O)O

Legend:
[1] = tested on: Bacterial Enzyme Targets (bacterial supernatants of tested micro-organisms); details: for In vitro Cleavage Activity (using FRET): micro-organisms whose enzymes cleave the peptide
[2] = tested on: Bacterial Enzyme Targets (tested micro-organisms); details: micro-organisms whose enzymes cleave the peptide

## FITC-Ahx-Gly-Gly-Gly-Gly-Lys-DABCYL ({FITC-Ahx}-GGGGK-{DABCYL})
[1]
  In vitro Cleavage Activity (using FRET): P. aeruginosa
[2]
  Ex vivo Cleavage activity (using FRET): P. aeruginosa

## FITC-Ahx-Leu-DLeu-Lys-DABCYL [BikKam 1]
[1]
  selectivity of peptide cleavage: highly selective for B. anthracis
  In vitro Cleavage Activity (using FRET): B. anthracis

## FITC-Ahx-Leu-DVal-Lys-DABCYL [BikKam 6]
[1]
  In vitro Cleavage Activity (using FRET): B. anthracis (moderate)
